These results are taken from ChEMBL document CHEMBL4342450, “Antitumor Activity of Ohmyungsamycin A through the Regulation of the Skp2-p27 Axis and MCM4 in Human Colorectal Cancer Cells” (J Nat Prod, 2020).

For one assay, the system named is MDA-MB-231. Briefly: Antiproliferative activity against human MDA-MB-231 cells after 72 hrs by sulforhodamine B assay. Format: functional, cell-based. Particulars: MDA-MB-231, 72 h.
A further assay relates to HCT-116. Briefly: Antiproliferative activity against human HCT116 cells after 72 hrs by sulforhodamine B assay. Particulars: HCT-116, 72 h. Format: functional, cell-based.
For a further assay, the system named is A549. In words: Antiproliferative activity against human A549 cells after 72 hrs by sulforhodamine B assay. Format: functional, cell-based. The following applies: A549, 72 h.
The next assay relates to SK-HEP1. In words: Antiproliferative activity against human SKHEP1 cells after 72 hrs by sulforhodamine B assay. Format: functional, cell-based. Particulars: SK-HEP1, 72 h.
Another assay deals with SNU-638. Briefly: Antiproliferative activity against human SNU638 cells after 72 hrs by sulforhodamine B assay. Format: functional, cell-based. The following applies: SNU-638, 72 h.
The test system of another assay is MRC5. In words: Antiproliferative activity against human MRC5 cells after 72 hrs by sulforhodamine B assay. Format: cell-based. The following applies: MRC5, 72 h.

Turning to `COc1cc([C@@H]2c3cc4c(cc3[C@@H](O[C@@H]3O[C@@H]5CO[C@@H](C)O[C@H]5[C@H](O)[C@H]3O)[C@H]3COC(=O)[C@H]23)OCO4)cc(OC)c1O` [ETOPOSIDE], the IC50 is 3850 nM with MDA-MB-231; 520 nM in the assay on HCT-116; 480 nM with A549; 780 nM in the assay with SK-HEP1; 820 nM with SNU-638; 11200 nM in the assay with MRC5.
